Laboratory results taken from paper PMC12679472, “The structural requirements of 3,5-substituted oxindoles that determine selective AMPK or GSK3β inhibition” (RSC Medicinal Chemistry, 2025).
Where two headings read alike, the source gives them in different places.

Key:
[1] = biological target: purified recombinant human GSK3β (Homo sapiens, UniProt P49841); test: radiometric [33P]-ATP kinase activity assay, GSK3β; conditions: for Hill Slope: GSK3β curve fit, kinase profiling report; for HillSlope (GraphPad Prism best-fit, GSK3β) / LogEC50 (GraphPad Prism best-fit, GSK3β): sigmoidal dose-response variable slope
purified recombinant human GSK3β, sequence (P49841 whole entry): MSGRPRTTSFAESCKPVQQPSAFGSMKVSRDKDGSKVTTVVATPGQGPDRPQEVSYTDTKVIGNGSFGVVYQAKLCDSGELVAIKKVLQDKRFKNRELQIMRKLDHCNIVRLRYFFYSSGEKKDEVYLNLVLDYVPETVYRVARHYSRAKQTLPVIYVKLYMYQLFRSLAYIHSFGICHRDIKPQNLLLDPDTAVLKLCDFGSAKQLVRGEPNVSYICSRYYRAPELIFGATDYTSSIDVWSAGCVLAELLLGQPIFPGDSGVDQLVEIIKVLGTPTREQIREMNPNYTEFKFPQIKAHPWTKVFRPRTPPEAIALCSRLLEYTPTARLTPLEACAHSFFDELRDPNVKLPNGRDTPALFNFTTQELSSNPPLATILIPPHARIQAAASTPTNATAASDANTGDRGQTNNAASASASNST

[2] = biological target: purified recombinant human AMPK (α1β1γ1) (Homo sapiens, UniProt Q13131); test: radiometric [33P]-ATP kinase activity assay, AMPK; type: biochemical; conditions: for inhibition of AMPK activity (in words): up to 10 μM; for Hill Slope: AMPK curve fit, kinase profiling report; for HillSlope (GraphPad Prism best-fit, AMPK) / LogEC50 (GraphPad Prism best-fit, AMPK): sigmoidal dose-response variable slope; for LogEC50 (GraphPad Prism best-fit, AMPK): concentration axis Log(M); for % Activity (enzyme activity relative to DMSO controls): AMPK
purified recombinant human AMPK (α1β1γ1) (Homo sapiens, UniProt Q13131), sequence (Q13131 whole entry): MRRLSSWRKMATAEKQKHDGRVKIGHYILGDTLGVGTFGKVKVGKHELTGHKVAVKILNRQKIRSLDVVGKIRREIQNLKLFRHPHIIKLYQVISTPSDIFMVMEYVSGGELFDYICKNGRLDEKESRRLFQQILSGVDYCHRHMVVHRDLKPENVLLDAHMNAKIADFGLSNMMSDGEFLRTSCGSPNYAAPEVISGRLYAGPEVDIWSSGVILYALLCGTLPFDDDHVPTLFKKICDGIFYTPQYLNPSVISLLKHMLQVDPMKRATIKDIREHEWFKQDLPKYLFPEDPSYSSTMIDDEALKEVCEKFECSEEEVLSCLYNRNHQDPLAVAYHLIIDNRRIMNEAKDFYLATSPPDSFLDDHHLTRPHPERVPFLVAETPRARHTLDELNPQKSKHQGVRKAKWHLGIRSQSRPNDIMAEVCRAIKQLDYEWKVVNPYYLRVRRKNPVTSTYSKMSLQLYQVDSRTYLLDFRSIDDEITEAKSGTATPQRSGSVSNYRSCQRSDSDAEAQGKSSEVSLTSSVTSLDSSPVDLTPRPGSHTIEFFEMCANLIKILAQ
purified recombinant human AMPK (α1β1γ1) (Homo sapiens, UniProt Q13131), sequence (Q9Y478 whole entry partner): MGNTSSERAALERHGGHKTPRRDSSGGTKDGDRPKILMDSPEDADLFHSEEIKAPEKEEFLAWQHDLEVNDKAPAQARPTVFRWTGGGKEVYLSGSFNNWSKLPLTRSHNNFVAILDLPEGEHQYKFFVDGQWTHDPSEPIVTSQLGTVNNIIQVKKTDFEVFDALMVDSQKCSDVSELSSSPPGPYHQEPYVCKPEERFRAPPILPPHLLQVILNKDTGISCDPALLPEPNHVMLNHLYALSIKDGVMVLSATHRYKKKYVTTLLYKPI
purified recombinant human AMPK (α1β1γ1) (Homo sapiens, UniProt Q13131), sequence (P54619 whole entry partner): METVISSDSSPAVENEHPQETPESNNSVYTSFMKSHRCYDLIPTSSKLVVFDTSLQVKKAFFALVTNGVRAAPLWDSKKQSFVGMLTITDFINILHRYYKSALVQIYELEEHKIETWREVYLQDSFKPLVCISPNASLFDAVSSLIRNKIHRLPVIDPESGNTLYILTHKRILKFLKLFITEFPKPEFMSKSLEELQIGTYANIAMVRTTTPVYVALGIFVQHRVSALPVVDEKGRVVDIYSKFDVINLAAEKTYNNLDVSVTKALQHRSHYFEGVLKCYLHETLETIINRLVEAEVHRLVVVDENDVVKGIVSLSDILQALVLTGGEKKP

[3] = biological target: purified recombinant human AMPK (α1β1γ1) (Homo sapiens, UniProt P54619+Q13131+Q9Y478); test: radiometric [33P]-ATP kinase activity assay, AMPK; type: biochemical; conditions: for IC50: 10 μM [33P]-ATP; for EC50: concentration axis Log(M)
purified recombinant human AMPK (α1β1γ1) (Homo sapiens, UniProt P54619+Q13131+Q9Y478), sequence (Q13131 whole entry): as the sequence (Q13131 whole entry) above
purified recombinant human AMPK (α1β1γ1) (Homo sapiens, UniProt P54619+Q13131+Q9Y478), sequence (Q9Y478 whole entry partner): as the sequence (Q9Y478 whole entry partner) above
purified recombinant human AMPK (α1β1γ1) (Homo sapiens, UniProt P54619+Q13131+Q9Y478), sequence (P54619 whole entry partner): as the sequence (P54619 whole entry partner) above

[4] = test system: AMPK; design: method as in PMID 23410232; conditions: at 10 μM; cited from earlier work
[5] = test system: GSK3β; design: method as in PMID 23410232; conditions: at 10 μM; cited from earlier work
[6] = test system: cellular AMPK activity; conditions: cited from earlier work
[7] = 10-dose singlet, 3-fold dilutions from 10 μM, read-out: AMPK IC50

Compound	IC50 [1] [µM]	Hill Slope [1]	HillSlope (GraphPad Prism best-fit, GSK3β) [1]	inhibition of AMPK activity (in words) ([2]; 10 μM [33P]-ATP)	IC50 [3, 7] [M]	Hill Slope [2]	other results
N#Cc1ccc2[nH]c(O)c(-c3ccc(CN4CCOCC4)cn3)c2c1 [AZD1080]	–	–	–	–	–	–	inhibition of AMPK kinase activity [4]: more than 50%; inhibition of GSK3β kinase activity [5]: more than 50%
N#CCCc1ccc2c(c1)/C(=C/c1cc(CN3CCOCC3)c[nH]1)C(=O)N2 [Compound 14, (Z) 5-(2-cyanoethyl)-3-((4-(morpholinomethyl)-1H-pyrrol-2-yl)methylene)oxindole]	> 10	–	–	demonstrated AMPK inhibition	5.04e-06	-0.86	inhibition of GSK3β kinase activity (in words) ([1]; up to 10 μM, 10 μM [33P]-ATP): did not show detectable GSK3β inhibition; HillSlope (GraphPad Prism best-fit, AMPK) [2]: -0.8552; LogEC50 (GraphPad Prism best-fit, AMPK) [2]: -5.298; EC50 ([3]; sigmoidal dose-response variable slope, Bottom = 0, read-out: EC50 (GraphPad Prism best-fit, % activity against AMPK)): 5.04e-06 M
c1cc(-c2cnn3cc(-c4ccc(OCCN5CCCCC5)cc4)cnc23)ccn1 [Compound C, dorsomorphin]	–	–	–	–	–	–	concentration required to inhibit cellular AMPK activity [6]: > 10 µM
N#Cc1ccc2c(c1)C(=Cc1ccc(CN3CCOCC3)cc1)C(=O)N2 (mixture of isomers) [Compound 11, (E/Z)-5-Cyano-3-(4-(morpholinomethyl)benzylidene)oxindole]	3.37	-0.95	-0.9491	did not demonstrate AMPK inhibition	> 1e-05	–	EC50 [1]: 3.37 µM; LogEC50 (GraphPad Prism best-fit, GSK3β) [1]: -5.472
N#Cc1ccc2c(c1)/C(=C/c1cc(CN3CCOCC3)c[nH]1)C(=O)N2 [Compound 13, (Z)-5-Cyano-3-((4-(morpholinomethyl)-1H-pyrrol-2-yl)methylene)oxindole]	4.92	-0.59	-0.5892	demonstrated AMPK inhibition	–	-0.38	EC50 [1]: 4.92 µM; LogEC50 (GraphPad Prism best-fit, GSK3β) [1]: -5.308; HillSlope (GraphPad Prism best-fit, AMPK) [2]: -0.3757; LogEC50 (GraphPad Prism best-fit, AMPK), beyond top dose ([2]; sigmoidal fit, extrapolated beyond 10 μM): -4.728; EC50 ([3]; sigmoidal fit, extrapolated beyond 10 μM, read-out: EC50 (GraphPad Prism best-fit, % activity against AMPK), beyond top dose): 1.87e-05 M; IC50 ([3]; supplement kinase profiling report, read-out: IC50 (M) AMPK(A1/B1/G1)): > 1e-05 M
CNC(=O)c1ccccc1Oc1nc(Nc2cc(OC)c(OC)c(OC)c2)ncc1Br [SBI-0206965]	–	–	–	–	–	–	concentration required to inhibit cellular AMPK activity [6]: > 10 µM

Continued, in another order:

IC50 [1] [µM]	Hill Slope [1]	HillSlope (GraphPad Prism best-fit, GSK3β) [1]	inhibition of AMPK activity (in words) ([2]; 10 μM [33P]-ATP)	IC50 [3, 7] [M]	Hill Slope [2]	Compound	other results
8.29	-0.95	-0.9519	did not demonstrate AMPK inhibition	> 1e-05	–	CN1CCN(Cc2ccc(C=C3C(=O)Nc4ccc(C#N)cc43)cc2)CC1 (mixture of isomers) [Compound 12, (E/Z)-5-Cyano-3-(4-((4-methylpiperazin-1-yl)methyl)benzylidene)oxindole]	EC50 [1]: 8.29 µM; LogEC50 (GraphPad Prism best-fit, GSK3β) [1]: -5.082
> 10	–	–	–	> 1e-05	–	O=C1Nc2ccc(CCN3CCCCC3)cc2/C1=C/c1ccc(CN2CCOCC2)cc1 [Compound 9, (Z)-5-(2-(Piperidin-1-yl)ethyl)-3-(4-(morpholinomethyl)benzylidene)oxindole]	–
> 10	–	–	–	> 1e-05	–	CN1CCN(Cc2ccc(/C=C3\C(=O)Nc4ccc(CCN5CCCCC5)cc43)cc2)CC1 [Compound 10, (Z)-5-(2-(Piperidin-1-yl)ethyl)-3-(4-((4-methylpiperazin-1-yl)methyl)benzylidene)oxindole]	–
–	–	–	–	–	-0.77	Cn1cc(C2=C(c3cn(CCCSC(=N)N)c4ccccc34)C(=O)NC2=O)c2ccccc21 [RO-31-8220, reference compound]	% Activity (enzyme activity relative to DMSO controls) ([2]; Ro-31-8220 Conc. 1.02E-09 M): 91.37%; % Activity (enzyme activity relative to DMSO controls) ([2]; Ro-31-8220 Conc. 2.00E-05 M): 5.65%; % Activity (enzyme activity relative to DMSO controls) ([2]; Ro-31-8220 Conc. 2.22E-06 M): 9.47%; % Activity (enzyme activity relative to DMSO controls) ([2]; Ro-31-8220 Conc. 2.47E-07 M): 25.85%; % Activity (enzyme activity relative to DMSO controls) ([2]; Ro-31-8220 Conc. 2.74E-08 M): 71.55%; % Activity (enzyme activity relative to DMSO controls) ([2]; Ro-31-8220 Conc. 3.05E-09 M): 90.55%; % Activity (enzyme activity relative to DMSO controls) ([2]; Ro-31-8220 Conc. 6.67E-06 M): 3.95%; % Activity (enzyme activity relative to DMSO controls) ([2]; Ro-31-8220 Conc. 7.41E-07 M): 12.59%; % Activity (enzyme activity relative to DMSO controls) ([2]; Ro-31-8220 Conc. 8.23E-08 M): 51.73%; % Activity (enzyme activity relative to DMSO controls) ([2]; Ro-31-8220 Conc. 9.14E-09 M): 78.23%; IC50 ([2]; supplement kinase profiling report, 10 μM [33P]-ATP, read-out: IC50 (M) AMPK(A1/B1/G1)): 8.36e-08 M
–	-0.78	-0.7769	–	–	-0.78	CCN(CC)CCNC(=O)c1c(C)[nH]c(/C=C2\C(=O)Nc3ccc(F)cc32)c1C [Sunitinib, sunitinib, reference compound]	concentration required to inhibit cellular AMPK activity [6]: < 5 µM; HillSlope (GraphPad Prism best-fit, AMPK) [2]: -0.7785; LogEC50 (GraphPad Prism best-fit, AMPK) [2]: -7.395
> 10	–	–	did not demonstrate AMPK inhibition	> 1e-05	–	N#CCCc1ccc2c(c1)C(=Cc1ccc(CN3CCOCC3)cc1)C(=O)N2 (mixture of isomers) [Compound 7, (E/Z)-5-(2-Cyanoethyl)-3-(4-(morpholinomethyl)benzylidene)oxindole]	–
> 10	–	–	did not demonstrate AMPK inhibition	> 1e-05	–	CN1CCN(Cc2ccc(C=C3C(=O)Nc4ccc(CCC#N)cc43)cc2)CC1 (mixture of isomers) [Compound 8, (E/Z)-5-(2-Cyanoethyl)-3-(4-((4-methylpiperazin-1-yl)methyl)benzylidene)oxindole]	–
